# Measurements as given in patent US20090149455A1, “Use of Triazolopyrimidines for Controlling Plant Diseases on Legumes” (Bayer CropScience AG, priority 2005, published 2009).
# Test: log p
# Type: physicochemical
row,SMILES,log p
1,C=CCN(C)c1c(-c2ccc(F)cc2F)c(Cl)nc2ncnn12 [Example 14],2.89
2,C=C(C)CNc1c(-c2ccc(F)cc2F)c(Cl)nc2ncnn12 [Example 97],2.6
3,CC(Nc1c(-c2c(F)cccc2Cl)c(Cl)nc2ncnn12)C(C)(C)C (stereo not drawn) [Example 69],3.58
4,CCNc1c(-c2ccccc2F)c(Cl)nc2ncnn12 [Example 23],2.13
5,CNc1c(-c2c(F)cccc2F)c(Cl)nc2ncnn12 [Example 82],1.84
6,CC(C)Nc1c(-c2ccccc2)c(Cl)nc2ncnn12 [Example 147],2.45
7,CC(C)Nc1c(-c2ccc(F)c(Cl)c2)c(Cl)nc2ncnn12 [Example 140],2.9
8,Fc1cc(C(F)(F)F)cc(Cl)c1-c1c(Cl)nc2ncnn2c1N1CCCCC1 [Example 177],4.03
9,CCNc1c(-c2c(F)cccc2F)c(Cl)nc2ncnn12 [Example 24],2.14
10,CC(C)Nc1c(-c2c(F)c(F)c(F)c(F)c2F)c(Cl)nc2ncnn12 [Example 144],3.05
11,CC(C)CNc1c(-c2ccccc2Cl)c(Cl)nc2ncnn12 [Example 126],2.97
12,FCCCNc1c(-c2c(F)cc(F)cc2F)c(Cl)nc2ncnn12 [Example 12],2.3
13,CNc1c(-c2c(F)cc(F)cc2F)c(Cl)nc2ncnn12 [Example 83],2.01
14,CC(Nc1c(-c2ccccc2F)c(Cl)nc2ncnn12)C(F)(F)F (stereo not drawn) [Example 49],2.69
15,CCC(C)Nc1c(-c2ccccc2Cl)c(Cl)nc2ncnn12 (stereo not drawn) [Example 9],2.94
16,C=C(C)CN(CC)c1c(-c2ccccc2)c(Cl)nc2ncnn12 [Example 106],3.44
17,C[C@H](Nc1c(-c2c(Cl)cc(OC(F)(F)F)cc2Cl)c(Cl)nc2ncnn12)C(F)(F)F [Example 37],3.89
18,CC1CNN(c2c(-c3c(F)cc(F)cc3F)c(Cl)nc3ncnn23)CC1C (stereo not drawn) [Example 270],3.35

row,SMILES,log p
1,C=C(C)CNc1c(-c2c(F)cc(F)cc2F)c(Cl)nc2ncnn12 [Example 94],2.63
2,CC1CCN(c2c(-c3c(F)cc(C(F)(F)F)cc3Cl)c(Cl)nc3ncnn23)CC1 [Example 182],4.37
3,CC1CCCN1c1c(-c2ccccc2Cl)c(Cl)nc2ncnn12 (stereo not drawn) [Example 255],3.1
4,CC1C=NN(c2c(-c3ccccc3Cl)c(Cl)nc3ncnn23)CC1 (stereo not drawn) [Example 272],2.79
5,Fc1ccc(-c2c(Cl)nc3ncnn3c2N2CCCCO2)c(Cl)c1 [Example 204],3.11
6,Fc1cccc(Cl)c1-c1c(Cl)nc2ncnn2c1N1CC=CCO1 [Example 243],2.78
7,Fc1c(F)c(F)c(-c2c(Cl)nc3ncnn3c2N2CCCCC2C(F)(F)F)c(F)c1F (stereo not drawn) [Example 208],4.09
8,C[C@@H](Nc1c(-c2c(F)cc(F)cc2F)c(Cl)nc2ncnn12)C(F)(F)F [Example 60],2.84
9,CC1CCCCN1c1c(-c2ccccc2Cl)c(Cl)nc2ncnn12 (stereo not drawn) [Example 248],3.6
10,CC(C)(C)CC(C)(C)Nc1c(-c2c(F)cc(F)cc2F)c(Cl)nc2ncnn12 [Example 10],4.32
11,Fc1ccc(-c2c(Cl)nc3ncnn3c2N2CCOCC2)c(F)c1 [Example 195],2.19
12,C[C@H](Nc1c(-c2c(Cl)cccc2Cl)c(Cl)nc2ncnn12)C(F)(F)F [Example 53],3.02
13,CCC(C)Nc1c(-c2c(F)cccc2F)c(Cl)nc2ncnn12 (stereo not drawn) [Example 5],2.71
14,Fc1ccc(-c2c(Cl)nc3ncnn3c2N2CC=CCC2)c(F)c1 [Example 186],2.94
15,C[C@H](Nc1c(-c2c(F)cc(F)cc2C(F)(F)F)c(Cl)nc2ncnn12)C(F)(F)F [Example 54],3.16
16,C[C@H](Nc1c(-c2c(Cl)cc(C(F)(F)F)cc2Cl)c(Cl)nc2ncnn12)C(F)(F)F [Example 36],3.79
17,Fc1cc(F)c(-c2c(Cl)nc3ncnn3c2N2CCCN2)c(F)c1 [Example 262],2.32
18,CC(Nc1c(-c2c(F)cc(F)cc2F)c(Cl)nc2ncnn12)C(F)(F)F (stereo not drawn) [Example 1],2.87
